The target in assay [1] is recombinant human ASK1 (hASK1) catalytic domain (Homo sapiens (Human), UniProt Q99683). Briefly: ASK1 enzymatic assay (ADP-Glo Kinase Assay). It is filed as biochemical. Conditions: for IC50: ADP production, MKK6 300 nM substrate, ATP 100 uM, mean ± standard deviation; for Efficacy (%): hASK1 enzymatic assay, relative to standard inhibitor (100%) and DMSO vehicle (0%). An excerpt:
The purpose of this assay is to determine the effect of ASK1 inhibitors on the production of ADP by ASK1. The recombinant human ASK1 (hASK1) catalytic domain tagged with Glutathione S-transferase is used, and histidine-tagged full-length human MAP kinase kinase 6 (MKK6) and ATP are the substrate and cofactor, respectively.
The assay is done using an ADP-Glo™ Kinase Assay Kit (Promega, Catalog #V9102) according to the manufacturer's protocol with the following modifications. Briefly, hASK1 (0.25 nM) and MKK6 (300 nM) in a buffer (10 mM MOPS pH 7.0; 10 mM Mg-Acetate; 1 mM DTT; 0.025% NP-40; 0.05% BSA; 1.5% glycerol) are incubated with ASK1 inhibitors at varying concentrations ranging from 10.00 uM to 0.17 nM for 15 minutes, followed by incubation with ATP (100 uM) for 30 minutes at room temperature. ADP-Glo™ Reagent is added to terminate the kinase reaction and deplete the remaining ATP. The Kinase Detection Reagent is then added to convert ADP to ATP. The newly synthesized ATP is measured using a luciferase/luciferin reaction, and the luminescence determined by Envision (PerkinElmer). The luminescence intensities are analyzed by GeneData, and fit to a 4 parameter dose response-inhibitor logistics curve to determine IC50 values, using the effects of 5-(4-cyclopropyl-1H-imidazol-1-yl)-2-fluoro-4-methyl-N-{6-[4-(propan-2-yl)-4H-1,2,4-triazol-3-yl]pyridin-2-yl}benzamide as a standard and DMSO vehicle for 100% and 0% inhibition, respectively.

The target of another assay is human ASK1 (Homo sapiens (Human), UniProt Q99683). The assay can be described thus: ASK1 autophosphorylation (Thr838) assay in HEK293 cells overexpressing human ASK1. Conditions: for IC50: H2O2-stimulated (1 mM, 10 min) ASK1 autophosphorylation at Thr838, HEK293 cells, HTRF, mean ± standard deviation, read-out: HEK pASK1 IC50; for Efficacy (%): HEK pASK1 assay, relative to standard inhibitor (100%) and DMSO vehicle (0%). It is filed as cell-based. On the technique in general: TR-FRET usually uses a lanthanide donor and a delayed reading to cut background.

The results in this text go back to patent publication US11117891B2, “Isoquinolin and naphthydrin compounds” (Eli Lilly and Company, priority 2017, dated 2021).

What is called IC50 is the midpoint of a concentration-inhibition curve.

Chain of human ASK1 (Q99683 whole entry): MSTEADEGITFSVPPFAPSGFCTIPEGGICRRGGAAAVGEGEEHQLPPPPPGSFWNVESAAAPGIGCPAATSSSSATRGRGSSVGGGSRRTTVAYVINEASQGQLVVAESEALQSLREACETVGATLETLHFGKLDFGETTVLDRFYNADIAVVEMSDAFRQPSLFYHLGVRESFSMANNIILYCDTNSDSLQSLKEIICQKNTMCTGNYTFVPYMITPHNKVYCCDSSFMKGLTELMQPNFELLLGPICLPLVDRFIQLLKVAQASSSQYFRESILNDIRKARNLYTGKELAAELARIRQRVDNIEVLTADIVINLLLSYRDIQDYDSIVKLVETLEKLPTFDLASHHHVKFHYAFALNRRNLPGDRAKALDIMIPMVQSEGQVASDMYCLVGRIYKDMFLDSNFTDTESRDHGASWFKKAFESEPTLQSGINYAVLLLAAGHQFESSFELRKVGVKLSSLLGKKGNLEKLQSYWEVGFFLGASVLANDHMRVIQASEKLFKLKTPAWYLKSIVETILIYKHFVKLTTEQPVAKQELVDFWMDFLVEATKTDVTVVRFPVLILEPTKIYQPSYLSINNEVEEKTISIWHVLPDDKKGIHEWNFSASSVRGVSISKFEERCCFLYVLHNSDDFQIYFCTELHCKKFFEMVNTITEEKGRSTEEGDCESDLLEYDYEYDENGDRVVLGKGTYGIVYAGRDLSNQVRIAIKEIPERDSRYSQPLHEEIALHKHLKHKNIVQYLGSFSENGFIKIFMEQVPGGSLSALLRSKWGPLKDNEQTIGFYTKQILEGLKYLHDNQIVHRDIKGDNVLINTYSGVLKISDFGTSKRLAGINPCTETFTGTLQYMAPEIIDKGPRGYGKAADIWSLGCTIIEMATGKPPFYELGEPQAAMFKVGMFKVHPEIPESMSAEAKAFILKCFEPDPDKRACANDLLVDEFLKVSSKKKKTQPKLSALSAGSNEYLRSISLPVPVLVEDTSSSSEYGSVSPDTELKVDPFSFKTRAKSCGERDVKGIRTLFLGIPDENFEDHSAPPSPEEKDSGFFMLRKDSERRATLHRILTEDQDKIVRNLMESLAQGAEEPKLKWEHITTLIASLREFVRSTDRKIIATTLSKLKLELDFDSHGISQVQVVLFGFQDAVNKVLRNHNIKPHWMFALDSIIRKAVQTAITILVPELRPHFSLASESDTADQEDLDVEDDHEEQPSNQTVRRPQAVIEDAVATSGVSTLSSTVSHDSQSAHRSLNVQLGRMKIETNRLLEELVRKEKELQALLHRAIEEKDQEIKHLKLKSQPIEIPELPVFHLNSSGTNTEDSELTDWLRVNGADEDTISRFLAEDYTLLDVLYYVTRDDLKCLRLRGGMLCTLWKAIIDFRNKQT
Chain of recombinant human ASK1 (hASK1) catalytic domain (Q99683 680-938): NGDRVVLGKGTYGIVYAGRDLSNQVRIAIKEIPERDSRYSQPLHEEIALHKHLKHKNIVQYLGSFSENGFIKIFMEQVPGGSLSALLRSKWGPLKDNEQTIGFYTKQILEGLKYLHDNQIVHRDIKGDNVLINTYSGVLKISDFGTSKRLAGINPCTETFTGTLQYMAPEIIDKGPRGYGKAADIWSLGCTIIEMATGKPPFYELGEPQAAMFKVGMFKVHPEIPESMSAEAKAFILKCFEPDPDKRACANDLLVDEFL

`Cc1cc2c(cc1-c1cnn(C(C)C)c1)C(=O)N(c1cccc(-c3nncn3C(C)C)n1)CC2` [Example 1, 7-(1-Isopropylpyrazol-4-yl)-2-[6-(4-isopropyl-1,2,4-triazol-3-yl)-2-pyridyl]-6-methyl-3,4-dihydroisoquinolin-1-one]: in assay [1], the IC50 was 3.6 ± 0.8 nM and the “Efficacy (%)” value came out at 101%. Moreover, on human ASK1, the IC50 was determined as 38.6 ± 2.4 nM and the “Efficacy (%)” value was found to be 107%.
For the compound `Cc1cc2c(cc1-n1cnc(C3CC3)c1)C(=O)N(c1cccc(-c3nncn3C(C)C)n1)CC2` [Example 2, 7-(4-Cyclopropylimidazol-1-yl)-2-[6-(4-isopropyl-1,2,4-triazol-3-yl)-2-pyridyl]-6-methyl-3,4-dihydroisoquinolin-1-one], in assay [1], the IC50 amounted to 1.8 ± 0.4 nM and the “Efficacy (%)” value stood at 100.5%. At human ASK1, the IC50 turned out to be 13.1 ± 2.8 nM and the “Efficacy (%)” value turned out to be 103%.
For `CC(C)n1cnnc1-c1cccc(N2CCc3ncc(-n4cnc(C5CC5)c4)cc3C2=O)n1.Cl` [Example 3, 3-(4-Cyclopropylimidazol-1-yl)-6-[6-(4-isopropyl-1,2,4-triazol-3-yl)-2-pyridyl]-7,8-dihydro-1,6-naphthyridin-5-one; hydrochloride], in assay [1], the IC50 came out at 3.8 ± 0.9 nM and the “Efficacy (%)” value worked out at 100.1%. Further, on human ASK1, the IC50 turned out to be 31.5 ± 6.6 nM and the “Efficacy (%)” value came to 107%.
In the same order, the values of `CC(C)n1cc(-c2cnc3c(c2)C(=O)N(c2cccc(-c4nncn4C(C)C)n2)CC3)cn1` [Example 4, 3-(1-Isopropylpyrazol-4-yl)-6-[6-(4-isopropyl-1,2,4-triazol-3-yl)-2-pyridyl]-7,8-dihydro-1,6-naphthyridin-5-one] are 4.2 ± 0.8 nM, 99.8%, 41.9 ± 0.5 nM and 105%.
